Assay results reported in patent publication US6277825A (priority 1999, dated 2001).
Where a SMILES comes first, the peptide text is derived from it. Where no end group is shown, it is not given here. [ ]: non-standard residue; d: D form. Gla = N[C@@H](CC(C(=O)O)C(=O)O)C(=O)O

system: NMDA receptor; format: binding; conditions: not given

Compound | IC50
(A^7,10,14)6-17: A^7,10,14 Con G with residues 1-5 deleted (QANQALIRAKSN; ends and bridges not checked; UniProt P07231 81-97, looked up, variant E7A E10A E14A del1-5) | inactive
(A^7,10,14)3-17: A^7,10,14 Con G with residues 1-2 deleted (EELQANQALIRAKSN; ends and bridges not checked; UniProt P07231 81-97, looked up, variant E7A E10A E14A del1-2) | inactive
(A^7,10,14)5-17: A^7,10,14 Con G with residues 1-4 deleted (LQANQALIRAKSN; ends and bridges not checked; UniProt P07231 81-97, looked up, variant E7A E10A E14A del1-4) | inactive
(A^7,10,14)2-17: A^7,10,14 Con G with residue 1 deleted (EEELQANQALIRAKSN; ends and bridges not checked; UniProt P07231 81-97, looked up, variant E7A E10A E14A G1*) | inactive
(A^7,10,14)4-17: A^7,10,14 Con G with residues 1-3 deleted (ELQANQALIRAKSN; ends and bridges not checked; UniProt P07231 81-97, looked up, variant E7A E10A E14A del1-3) | inactive

same assay, conditions: read-out: IC50

Compound | IC50
CC[C@H](C)[C@H](NC(=O)[C@H](CC(C)C)NC(=O)[C@H](C)NC(=O)[C@H](CCC(N)=O)NC(=O)[C@H](CC(N)=O)NC(=O)[C@H](C)NC(=O)[C@H](CCC(N)=O)NC(=O)[C@H](CC(C)C)NC(=O)[C@H](CC(C(=O)O)C(=O)O)NC(=O)[C@H](CC(C(=O)O)C(=O)O)NC(=O)[C@H](CCC(=O)O)NC(=O)CN)C(N)=O [(A^7,10)1-12] (H-GE[Gla][Gla]LQANQALI-NH2; N-terminus assumed) | 0.3 µM
CC[C@H](C)[C@H](NC(=O)[C@H](CC(C)C)NC(=O)[C@H](C)NC(=O)[C@H](CCC(N)=O)NC(=O)[C@H](CC(N)=O)NC(=O)[C@H](C)NC(=O)[C@H](CCC(N)=O)NC(=O)[C@H](CC(C)C)NC(=O)[C@H](CC(C(=O)O)C(=O)O)NC(=O)[C@H](CC(C(=O)O)C(=O)O)NC(=O)[C@H](CCC(=O)O)NC(=O)CN)C(=O)N[C@@H](CCCNC(=N)N)C(N)=O [(A^7,10)1-13] (H-GE[Gla][Gla]LQANQALIR-NH2; N-terminus assumed) | 0.253 µM
CC[C@H](C)[C@H](NC(=O)[C@H](CC(C)C)NC(=O)[C@H](CC(C(=O)O)C(=O)O)NC(=O)[C@H](CCC(N)=O)NC(=O)[C@H](CC(N)=O)NC(=O)[C@H](CC(C(=O)O)C(=O)O)NC(=O)[C@H](CCC(N)=O)NC(=O)[C@H](CC(C)C)NC(=O)[C@H](CC(C(=O)O)C(=O)O)NC(=O)[C@H](Cc1ccc(O)cc1)NC(=O)[C@H](CCC(=O)O)NC(=O)CN)C(=O)N[C@@H](CCCNC(=N)N)C(=O)N[C@@H](CC(C(=O)O)C(=O)O)C(=O)N[C@@H](CCCCN)C(=O)N[C@@H](CO)C(=O)N[C@@H](CC(N)=O)C(N)=O [Y^3] (H-GEY[Gla]LQ[Gla]NQ[Gla]LIR[Gla]KSN-NH2; N-terminus assumed) | 0.96 µM
CC[C@H](C)[C@H](NC(=O)[C@H](CC(C)C)NC(=O)[C@H](CC(C(=O)O)C(=O)O)NC(=O)[C@H](CCC(N)=O)NC(=O)[C@H](CC(N)=O)NC(=O)[C@H](CC(C(=O)O)C(=O)O)NC(=O)[C@H](CCC(N)=O)NC(=O)[C@H](CC(C)C)NC(=O)[C@H](Cc1ccc(O)cc1)NC(=O)[C@H](CC(C(=O)O)C(=O)O)NC(=O)[C@H](CCC(=O)O)NC(=O)CN)C(=O)N[C@@H](CCCNC(=N)N)C(=O)N[C@@H](CC(C(=O)O)C(=O)O)C(=O)N[C@@H](CCCCN)C(=O)N[C@@H](CO)C(=O)N[C@@H](CC(N)=O)C(N)=O [E^4] (H-GE[Gla]YLQ[Gla]NQ[Gla]LIR[Gla]KSN-NH2; N-terminus assumed) | ≥ 20 µM
CC[C@H](C)[C@H](NC(=O)[C@H](CC(C)C)NC(=O)[C@H](Cc1ccc(O)cc1)NC(=O)[C@H](CCC(N)=O)NC(=O)[C@H](CC(N)=O)NC(=O)[C@H](C)NC(=O)[C@H](CCC(N)=O)NC(=O)[C@H](CC(C)C)NC(=O)[C@H](CC(C(=O)O)C(=O)O)NC(=O)[C@H](CC(C(=O)O)C(=O)O)NC(=O)[C@H](CCC(=O)O)NC(=O)CN)C(=O)N[C@@H](CCCNC(=N)N)C(=O)N[C@@H](CC(C(=O)O)C(=O)O)C(=O)N[C@@H](CCCCN)C(=O)N[C@@H](CO)C(=O)N[C@@H](CC(N)=O)C(N)=O [A^7, Y^10] (H-GE[Gla][Gla]LQANQYLIR[Gla]KSN-NH2; N-terminus assumed) | 0.079 µM

system: not given; conditions: Frings audiogenic, mouse, tissue homogenate

Compound | T1/2
CC[C@H](C)[C@H](NC(=O)[C@H](CC(N)=O)NC(=O)[C@H](CCC(=O)O)NC(=O)[C@H](CCCNC(=N)N)NC(=O)[C@H](C)NC(=O)[C@H](CC(C)C)NC(=O)[C@H](CCC(=O)O)NC(=O)[C@H](C)NC(=O)[C@H](C)NC(=O)[C@H](CCSC)NC(=O)[C@H](CCCCN)NC(=O)[C@H](C)NC(=O)[C@@H](NC(=O)[C@H](CCC(=O)O)NC(=O)[C@H](CCC(=O)O)NC(=O)[C@H](CCC(=O)O)NC(=O)CN)C(C)C)C(=O)N[C@@H](C)C(=O)N[C@@H](CCCCN)C(=O)NCC(=O)N[C@H]1CSSC[C@@H](C(=O)N[C@@H](Cc2ccc(O)cc2)C(=O)N2CCC[C@H]2C(=O)O)NC(=O)[C@H](CC(N)=O)NC(=O)[C@H](C(C)C)NC(=O)[C@H](CCCCN)NC1=O [ECon R] | 2.4 min
